The values below are quoted from earlier work in US8507652B2, “Pharmaceutical composition, dressing and method for treating skin lesion, intermediate composition and process for preparing said dressing, and use of cerium salt associated with a collagen matrix” (priority 2008, dated 2013).

For one series, the system named is 39 bacteria species. Conditions: 39 bacteria species studied, in vitro.
The subject of another series is interleucin-6. The conditions noted are these: lesions treated with cerium nitrate.
Another series concerns TNF-[…]. The conditions noted are these: lesions treated with cerium nitrate.

In the case of `O=[N+]([O-])[O-].O=[N+]([O-])[O-].O=[N+]([O-])[O-].[Ce+3]` [cerium nitrate], the concentration inhibiting growth in the series on 39 bacteria species is recorded as roughly 0.0004 M. For the same compound, the interleucin-6 level result in the series with interleucin-6 is “increase”. Further, in the series with TNF-[…], the “TNF-[…] level” value is recorded as “reduction”.
